The results in this text go back to article PMC6684654 (Nature Communications, 2019).

Holding throughout (assay): Kirby Bauer disc diffusion
Common to all, as to assay type: cell-based
For orientation: A growth-free zone around the sample is the usual read-out of agar diffusion tests.

Test [1] relates to NDM-1 K. pneumoniae XJ155019. An excerpt: (§1) Supplementary Ta b l e 2. Identification and anti biotic susceptibility of NDM-1-producing K. pneumonia strains.
(§2) Antibiotics NDM-1 NDM-1 NDM-1 NDM-1 […]
(§3) Cefoperazone/ sul bact am KB 32 (S) 7 (R) 7 (R) 7 (R) 7 (R)
(§4) Nitrofurantoi n KB 21 (S) 7 (R) 9 (R) 10 (R) 9 (R) […]
(§5) R, resistant; S, sensitive; M IC , minimum inhibitory concentration; KB, Kirb y Baue r disc diffusion method .
(§6) The unit of M IC is “μg/mL”. The unit of KB is “mm”.

Test [2] has as its system NDM-1 K. pneumoniae XJ155020. Particulars: for disc diffusion inhibition zone diameter: Klebsiella pneumoniae, read-out: KB disc diffusion.
Excerpt: as §1, §2, §3, §4, §5, §6

Test [3] deals with NDM-1 K. pneumoniae XJ155018. The settings on record: for inhibition zone diameter: Klebsiella pneumoniae, read-out: KB disc diffusion.
Excerpt: as §1, §2, §3, §4, §5, §6

The next test concerns K. pneumoniae ATCC13883. The settings on record: for inhibition zone diameter: Klebsiella pneumoniae, ATCC13883, read-out: KB disc diffusion.
Excerpt: as §1, §2, §3, §4, §5, §6

Test [4] deals with NDM-1 K. pneumoniae XJ155017. The settings on record: for inhibition zone diameter (Kirby-Bauer disc diffusion): Klebsiella pneumoniae, read-out: KB disc diffusion.
Excerpt: as §1, §2, §3, §4, §5, §6

For the next test, the system named is NDM-1 E. coli XJ141047. The settings on record: for inhibition zone diameter: Escherichia coli, read-out: KB disc diffusion. The text has this: (§7) Supplementary Table 1. Identification and antibiotic susceptibility of NDM-1-producing E. coli strains. […]
(§8) Cefoperazone/ sul bact am KB — — 7 (R) 7 (R) 7 (R)
(§9) Nitrofurantoi n KB — — 14 (R) 17 (R) 19 (S) […]
(§10) R, resistant; S, sensitive; M IC , minimum inhibitory concentration; KB, Kirb y Bauer disc diffusion method.
(§11) The unit of M IC is “ μ g/ mL”. The unit of KB is “ mm” .

The test system of a further test is NDM-1 E. coli XJ141015.
Excerpt: as §7, §8, §9, §10, §11

The test system of a further test is NDM-1 E. coli XJ141026.
Excerpt: as §7, §8, §9, §10, §11

With `CO/N=C(\C(=O)N[C@@H]1C(=O)N2C(C(=O)O)=C(COC(N)=O)CS[C@H]12)c1ccco1` [Cefuroxime], the “susceptibility class (KB)” value is given as “R” in test [1]; “R” in test [2]; “R” in test [3]; “S” in the test on K. pneumoniae ATCC13883; “R” in test [4]; “R” in the test on NDM-1 E. coli XJ141047. Besides, the “susceptibility class (KB)” value in the test on NDM-1 E. coli XJ141015 and with NDM-1 E. coli XJ141026 was “R” throughout. Further, in test [2], the disc diffusion inhibition zone diameter was determined as 7 mM. The inhibition zone diameter came to 7 mM in test [3], 23 mM in the test with K. pneumoniae ATCC13883 and 7 mM with NDM-1 E. coli XJ141047. For the same compound, the inhibition zone diameter (Kirby-Bauer disc diffusion) in test [4] was 7 mM.
On to `O=C1CN(/N=C/c2ccc([N+](=O)[O-])o2)C(=O)N1` [Nitrofurantoin], for which the “susceptibility class (KB)” value in test [1] is listed as “R”; in test [2], “R”; in test [3] it was “R”; in the test on K. pneumoniae ATCC13883, “S”; in test [4], “R”; with NDM-1 E. coli XJ141047 it was “S”. For the same compound, the “susceptibility class (KB)” value in the test on NDM-1 E. coli XJ141015 and with NDM-1 E. coli XJ141026 was “R” in each case. Further, the Kb in test [1] (Klebsiella pneumoniae, read-out: KB disc diffusion) stood at 10 mM; in the test with NDM-1 E. coli XJ141026 (Escherichia coli, read-out: KB disc diffusion), 17 mM. Further, the disc diffusion inhibition zone diameter in test [2] was 9 mM. Besides, the inhibition zone diameter is 9 mM in test [3], 21 mM in the test with K. pneumoniae ATCC13883 and 19 mM in the test on NDM-1 E. coli XJ141047. Further, the inhibition zone diameter (Kirby-Bauer disc diffusion) in test [4] turned out to be 7 mM.
